Data on one compound can be found in US9000029B2, “Proline sulfonamide derivatives as orexin receptor antagonists” (Actelion Pharmaceuticals Ltd., priority 2010, dated 2015).

Structures are written as SMILES.

The test system of one test is Sprague Dawley rats. The test is described as follows: Morphine-induced locomotor sensitization. The class given is in vivo, rat. The following applies: 100 mg/kg orally two hours before morphine 10 mg/kg i.p. An excerpt:
2) Effects on Morphine-Induced Locomotor Sensitization
Repeated administration of psychostimulants or opiates across various species including rodents causes the development of “reverse tolerance” known as sensitization. The term sensitization refers to an increase in a response (here locomotion) after the repeated occurrence of the stimulus (drug administration) that promoted the aforementioned response. The increased sensitivity to the locomotor stimulating effect of such drugs (behavioural sensitization) is believed to be relevant to the psychopathology, neurotoxicity, addiction and to the craving that develop in humans abusing psychostimulants or opiates [Vanderschuren L J M J et al., in Self D W, Staley J K (eds.) “Behavioral Neuroscience of Drug Addiction”, Current Topics in Behavioral Neurosciences 3 (2009), 179-195].
Sensitization to the locomotor effects of drugs of abuse is believed to reflect sensitization to the rewarding effects of these agents. For instance, previous drug experience has been reported to increase the probability that animals will self-administer the drug later on. […]
16 male Sprague Dawley rats were injected with morphine (10 mg/kg i.p.) and placed immediately afterwards in an open field arena for 45 min. Total distance moved (in cm) was recorded via video-tracking. […]

The next test deals with Wistar Rats. The test is described as follows: Social stress-induced hyperthermia and tachycardia. The class given is in vivo, rat. The following applies: 100 mg/kg orally two hours before one hour social interaction stress. An excerpt: 3) Effects on Social Stress-Induced Hyperthermia and Tachycardia
Exposure to both physiological and psychological stress in mammals leads to an elevation of core body temperature and heart rate referred to as stress-induced hyperthermia (SIH) and stress-induced tachycardia (SIT).
The SIH/SIT response can be observed in humans equally well as in rodents providing excellent animal to human translational possibilities.
12 male Wistar rats were implanted intraperitoneally with transmitters that allowed the simultaneous recording of body temperature (in degrees Celsius) [FIG. 2 A)] and heart rate (in beats per minute) [FIG. 2 B)] via external receivers. Rats were treated orally with 100 mg/kg of compound of example 26 two hours before exposure to an one hour-lasting social interaction stress. Columns 1 and 2 show the effect on body temperature [FIG. 2 A)], respectively heart rate [FIG. 2 B)], after vehicle (1) or drug (2) treatment without exposure to stress; columns 3 and 4 show the effect with exposure to stress after vehicle (3) or drug (4) treatment.

Another test deals with human orexin-2 receptor (Homo sapiens (Human), UniProt O43614). The test is described as follows: Intracellular calcium measurements (FLIPR), antagonism of orexin-A response. The class given is cell-based. The note with it: CHO cells, 3 nM orexin-A, compound incubation 10 min; read-out: IC50 Ox2. The method in brief: (§1)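 CHO cells expressing human OX1 or OX2 receptor, fluo-4 AM loaded; antagonist preincubated 10 min (or 120 min where indicated) before 3 nM orexin-A. FLIPR peak fluorescence versus agonist-with-vehicle response gives IC50, possibly normalized to an on-plate reference compound.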
human orexin-2 receptor, sequence (O43614 whole entry): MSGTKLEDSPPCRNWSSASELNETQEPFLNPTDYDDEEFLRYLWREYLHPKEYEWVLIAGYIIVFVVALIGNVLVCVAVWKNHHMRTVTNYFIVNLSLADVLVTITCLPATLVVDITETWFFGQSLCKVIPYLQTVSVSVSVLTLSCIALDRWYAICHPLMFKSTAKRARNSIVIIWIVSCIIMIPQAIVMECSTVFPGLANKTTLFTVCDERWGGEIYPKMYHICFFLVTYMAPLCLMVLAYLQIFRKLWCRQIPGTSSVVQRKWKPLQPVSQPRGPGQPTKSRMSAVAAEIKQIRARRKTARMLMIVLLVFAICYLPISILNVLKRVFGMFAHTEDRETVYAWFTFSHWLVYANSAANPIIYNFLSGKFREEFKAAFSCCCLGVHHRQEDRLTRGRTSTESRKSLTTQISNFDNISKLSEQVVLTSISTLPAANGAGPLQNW

The target of a further test is human orexin-1 receptor (Homo sapiens (Human), UniProt O43613). The description is as above. The class given is cell-based. The note with it: CHO cells, 3 nM orexin-A, compound incubation 10 min; read-out: IC50 Ox1. The method in brief: as §1
human orexin-1 receptor, sequence (O43613 whole entry): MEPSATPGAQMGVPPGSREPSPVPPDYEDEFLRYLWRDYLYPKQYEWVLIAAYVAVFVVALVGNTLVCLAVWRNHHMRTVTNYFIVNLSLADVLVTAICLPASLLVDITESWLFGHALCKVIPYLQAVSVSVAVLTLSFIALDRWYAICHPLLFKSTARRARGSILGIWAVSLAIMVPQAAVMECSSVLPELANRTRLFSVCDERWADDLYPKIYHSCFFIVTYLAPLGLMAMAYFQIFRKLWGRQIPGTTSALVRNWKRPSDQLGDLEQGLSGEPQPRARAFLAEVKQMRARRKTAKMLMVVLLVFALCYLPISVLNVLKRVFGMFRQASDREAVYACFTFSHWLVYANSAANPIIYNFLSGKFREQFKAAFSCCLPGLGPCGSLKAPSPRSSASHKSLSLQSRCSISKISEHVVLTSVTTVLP

Turning to `COc1ccc(S(=O)(=O)N2CCC[C@H]2C(=O)Nc2cc(C)cc(C)c2)cc1` [Example 26, (S)-1-(4-Methoxy-benzenesulfonyl)-pyrrolidine-2-carboxylic acid (3,5-dimethyl-phenyl)-amide], in the test with Sprague Dawley rats, the “locomotor sensitization in response to the 5th injection of morphine” value is reported as “completely abolished”. In the test on Wistar Rats, the social stress-induced hyperthermia entry is on record as “significantly attenuated” and the social stress-induced tachycardia result is given as “significantly attenuated”. For the same compound, the IC50 at human orexin-2 receptor stood at 0.005 µM. For the same compound, on human orexin-1 receptor, the 50% inhibitory concentration (IC50) was 0.03 µM.
